Measured values from patent publication US20170209432A1, “LYSINE DEMETHYLASE INHIBITORS FOR MYELOPROLIFERATIVE OR LYMPHOPROLIFERATIVE DISEASES OR DISORDERS” (ORYZON GENOMICS S.A., priority 2011, published 2017).
Where two headings read alike, the source gives them in different places.

Tests used:
platelets = assay: Platelet levels in mice after 5 consecutive once daily injections; format: in vivo, mice (Hsd:Athymic Nude-Foxn1nu); settings: blood 60min after last dose
Procedure: On the fifth day, 60min after the administration, mice were sacrificed and blood was collected in sodium citrate-containing tubes for haemogram analysis. Platelet levels were determined and referred as % of platelets compared with the levels found in mice treated with vehicle. Platelet levels were determined in a standard hematology analyzer (Abacus Junior Vet, from Diatron) following the manufacturer's instructions.
20% 2-hydroxypropyl-β-cyclodextrin in H2O was used as a vehicle. When necessary, 10% DMSO was also added in the vehicle. Each day, compounds were administered in a single intraperitoneal injection with administration volumes of 15 ml/kg.
Mice strain was Hsd:Athymic Nude-Foxn1nu. Animals were maintained in air and temperature controlled cages with regular supply of water and food.

LSD1 = LSD1 (Homo sapiens, UniProt O60341); assay: LSD1 demethylase inhibition, Amplex Red peroxide/peroxidase-coupled assay; format: biochemical; parameters: purchased BPS Bioscience Inc
From the text: Compounds for use in the methods of the invention can be identified by their ability to inhibit LSD1. The ability of the compounds of the invention to inhibit LSD1 can be tested as follows. Human recombinant LSD1 protein was purchased from BPS Bioscience Inc. In order to monitor LSD1 enzymatic activity and/or its inhibition rate by our inhibitor(s) of interest, di-methylated H3-K4 peptide (Millipore) was chosen as a substrate. The demethylase activity was estimated, under aerobic conditions, by measuring the release of H2O2 produced during the catalytic process, using the Amplex® Red peroxide/peroxidase-coupled assay kit (Invitrogen).
Within the experiment, each concentration of inhibitor was tested in triplicate. […] The enzymatic reactions were set up in a 50 mM sodium phosphate, pH 7.4 buffer. At the end of the incubation, Amplex® Red reagent and horseradish peroxidase (HPR) solution were added to the reaction according to the recommendations provided by the supplier (Invitrogen), and left to incubate for 30 extra minutes at room temperature in the dark. A 1 μM H2O2 solution was used as a control of the kit efficiency. The conversion of the Amplex® Red reagent to resorufin due to the presence of H2O2 in the assay, was monitored by fluorescence (excitation at 540 nm, emission at 590 nm) using a microplate reader (Infinite 200, Tecan). Arbitrary units were used to measure level of H2O2 produced in the absence and/or in the presence of inhibitor.
The maximum demethylase activity of LSD1 was obtained in the absence of inhibitor and corrected for background fluorescence in the absence of LSD1. The Ki (IC50) of each inhibitor was estimated at half of the maximum activity.

[1] = test system: K562 chronic myelogenous leukemia cells; assay: In vitro cytotoxicity, fluorometry-based cell viability, K562; settings: Homo sapiens, K562, 72 h
Procedure: (§1) K562 chronic myelogenous leukemia cells were seeded at different cell densities in 96-well plates. 24 hours later, compounds were added at serial dilutions.

[2] = biological target: T1, Human recombinant monoamine oxidase MAO-B (Homo sapiens, UniProt P27338); assay: MAO-B inhibition, kynuramine fluorescence assay; format: biochemical
T1 construct: purchased Sigma Aldrich
T1 sequence (P27338 1-520): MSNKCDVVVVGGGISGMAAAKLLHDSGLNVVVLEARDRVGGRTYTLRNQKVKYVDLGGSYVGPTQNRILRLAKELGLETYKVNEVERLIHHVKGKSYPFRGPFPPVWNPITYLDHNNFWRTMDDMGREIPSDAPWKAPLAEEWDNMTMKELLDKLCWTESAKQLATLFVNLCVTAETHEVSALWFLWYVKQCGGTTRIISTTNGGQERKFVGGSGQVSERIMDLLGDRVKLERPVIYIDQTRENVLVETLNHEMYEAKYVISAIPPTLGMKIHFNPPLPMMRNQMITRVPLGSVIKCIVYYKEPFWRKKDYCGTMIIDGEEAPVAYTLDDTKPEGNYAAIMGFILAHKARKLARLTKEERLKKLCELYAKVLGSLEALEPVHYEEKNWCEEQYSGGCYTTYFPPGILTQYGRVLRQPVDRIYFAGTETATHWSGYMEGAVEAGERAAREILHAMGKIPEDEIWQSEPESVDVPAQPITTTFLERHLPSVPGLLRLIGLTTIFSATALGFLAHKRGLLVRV
From the text: (§2) Human recombinant monoamine oxidase proteins MAO-A and MAO-B were purchased from Sigma Aldrich. MAOs catalyze the oxidative deamination of primary, secondary and tertiary amines. In order to monitor MAO enzymatic activities and/or their inhibition rate by inhibitor(s) of interest, a fluorescent-based (inhibitor)-screening assay was set up. 3-(2-Aminophenyl)-3-oxopropanamine (kynuramine dihydrobromide, Sigma Aldrich), a non fluorescent compound was chosen as a substrate. Kynuramine is a non-specific substrate for both MAOs activities. While undergoing oxidative deamination by MAO activities, kynuramine is converted into 4-hydroxyquinoline (4-HQ), a resulting fluorescent product.
The monoamine oxidase activity was estimated by measuring the conversion of kynuramine into 4-hydroxyquinoline. […]
After leaving the enzyme(s) interacting with the inhibitor, 60 to 90 μM of kynuramine was added to each reaction for MAO-B and MAO-A assay respectively, and the reaction was left for 1 hour at 37° C. in the dark. […] The conversion of kynuramine to 4-hydroxyquinoline, was monitored by fluorescence (excitation at 320 nm, emission at 360 nm) using a microplate reader (Infinite 200, Tecan). Arbitrary units were used to measure levels of fluorescence produced in the absence and/or in the presence of inhibitor.
(§3) The Ki (IC50) of each inhibitor was determined at Vmax/2.

[3] = biological target: T2, Human recombinant monoamine oxidase MAO-A (Homo sapiens, UniProt P21397); assay: MAO-A inhibition, kynuramine fluorescence assay; format: biochemical
T2 construct: purchased Sigma Aldrich
T2 sequence (P21397 1-527): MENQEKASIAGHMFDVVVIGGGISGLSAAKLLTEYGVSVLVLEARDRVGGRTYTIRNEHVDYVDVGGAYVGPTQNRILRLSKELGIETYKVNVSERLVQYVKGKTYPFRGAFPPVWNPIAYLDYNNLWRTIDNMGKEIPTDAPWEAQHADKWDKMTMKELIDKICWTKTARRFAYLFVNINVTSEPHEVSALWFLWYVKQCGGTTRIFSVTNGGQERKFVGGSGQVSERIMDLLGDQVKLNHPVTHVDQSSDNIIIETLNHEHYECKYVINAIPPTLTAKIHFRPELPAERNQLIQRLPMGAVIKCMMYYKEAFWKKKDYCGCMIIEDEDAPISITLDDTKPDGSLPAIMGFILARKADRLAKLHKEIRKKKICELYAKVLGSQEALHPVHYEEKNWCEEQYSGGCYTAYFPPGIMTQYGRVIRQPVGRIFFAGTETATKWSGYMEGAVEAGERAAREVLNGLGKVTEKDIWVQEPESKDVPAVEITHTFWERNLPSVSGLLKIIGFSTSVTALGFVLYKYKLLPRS
From the text: as §2
The monoamine oxidase activity was estimated by measuring the conversion of kynuramine into 4-hydroxyquinoline. Assays were conducted in 96-well black plates with clear bottom (Corning) in a final volume of 100 μL. The assay buffer was 100 mM HEPES, pH 7.5. Each experiment was performed in triplicate within the same experiment.
Briefly, a fixed amount of MAO (0.25 μg for MAO-A and 0.5 μg for MAO-B) was incubated on ice for 15 minutes in the reaction buffer, in the absence and/or in the presence of various concentrations of inhibitor (e.g., from 0 to 50 μM, depending on the inhibitor strength).
After leaving the enzyme(s) interacting with the inhibitor, 60 to 90 μM of kynuramine was added to each reaction for MAO-B and MAO-A assay respectively, and the reaction was left for 1 hour at 37° C. in the dark. The oxidative deamination of the substrate was stopped by adding 50 μL (v/v) of NaOH 2N. The conversion of kynuramine to 4-hydroxyquinoline, was monitored by fluorescence (excitation at 320 nm, emission at 360 nm) using a microplate reader (Infinite 200, Tecan). Arbitrary units were used to measure levels of fluorescence produced in the absence and/or in the presence of inhibitor.
as §3

[4] = test system: H3K4 methylation in SH-SY5Y cells; assay: Western blot for dimethylated H3-K4 in cells grown with compound; format: cell-based
From the text: FIG. 3 Compound Dual-1 Increases Histone Methylation.
B-actin was used as a loading control.

[5] = test system: HL-60 (acute promyelocytic leukemia); assay: In vitro cytotoxicity, HL-60; format: cell-based; settings: Homo sapiens; HL-60, same protocol as K562
Procedure: as §1
(§4) Following the same protocol, in vitro cytotoxicity against other hematological cancer cell lines was tested.

[6] = test system: Jurkat (acute T cell leukemia); assay: In vitro cytotoxicity, Jurkat; format: cell-based; settings: Homo sapiens, same protocol as K562
Procedure: as §1, §4

[7] = test system: RPMI-8226 (Multiple myeloma); assay: In vitro cytotoxicity, RPMI-8226; format: cell-based; settings: Homo sapiens; RPMI-8226, same protocol as K562
Procedure: as §1, §4

[8] = read-out: EC50 (μM), concentration at which 50% of the cells remain viable, K562, cell density 3xA, 72h after compound addition
[9] = read-out: EC50 (μM), concentration at which 50% of the cells remain viable, K562, cell density 10xA, 72h after compound addition
[10] = read-out: EC50 (μM), concentration at which 50% of the cells remain viable, K562, cell density A, 72h after compound addition
[11] = 3 mg/kg intraperitoneal once daily for 5 days
[12] = 10 mg/kg intraperitoneal once daily for 5 days
[13] = 20 mg/kg intraperitoneal once daily for 5 days
[14] = 40 mg/kg intraperitoneal once daily for 5 days
[15] = 30 mg/kg intraperitoneal once daily for 5 days

Compound | IC50 (LSD1) | EC50 [1, 8] | EC50 [1, 9] | EC50 [1, 10] | IC50 [3] | % platelets vs. Vehicle (platelets; [12]) | further results
N[C@H]1CC1c1ccc(-c2cccc(O)c2)cc1 (stereo partly drawn) [Compound 6] | < 0.07 µM | 10.3 µM | 16.8 µM | 16.2 µM | > 1 µM |  | % platelets vs. Vehicle (platelets; 17 mg/kg intraperitoneal once daily for 5 days): 56%; % platelets vs. Vehicle (platelets; 34 mg/kg intraperitoneal once daily for 5 days): 46%; % platelets vs. Vehicle (platelets; 52 mg/kg intraperitoneal once daily for 5 days): 63%; IC50 [2]: > 1 µM
CC(C)S(=O)(=O)Nc1cccc(-c2ccc([C@H]3C[C@@H]3N)cn2)c1 [Compound 9] |  | 57.1 µM | 95.1 µM | 31.5 µM |  |  | 
CN1CCN(C(=O)CN[C@H]2C[C@@H]2c2ccc(OCc3ccccc3)cc2)CC1 (racemic) [Compound 3] |  |  |  |  |  | 5% | % platelets vs. Vehicle (platelets; 1 mg/kg intraperitoneal once daily for 5 days): 46%; % platelets vs. Vehicle (platelets; [11]): 16%
NC(=O)CN[C@H]1CC1c1ccc(OCc2ccccc2)cc1 (stereo partly drawn) [Compound 1] | < 0.2 µM |  |  |  | > 2 µM | 66% | % platelets vs. Vehicle (platelets; 5 mg/kg intraperitoneal once daily for 5 days): 91%; % platelets vs. Vehicle (platelets; [13]): 55%; % platelets vs. Vehicle (platelets; [14]): 34%; H3K4 methylation in cells (western blot) ([4]; SH-SY5Y cells grown with compound for 1, 2, and 3 days, Dual-1 at 100 μM (FIG. 3)): increases H3K4 (4 methylation in cells in a time dependent manner; potency at increasing global dimethylated H3K4 levels as compared to tranylcypromine ([4]; SH-SY5Y cells, Dual-1 at 100 μM, parnate at 250 μM): ≥ 10 fold
CC(C)S(=O)(=O)Nc1cccc(-c2ccc([C@H]3C[C@@H]3N)cc2)c1 [Compound 8] | < 0.07 µM | 16.3 µM | 19.7 µM | 17.2 µM | > 1 µM |  | GI50 [5]: 21.2 µM; GI50 [6]: 18.2 µM; IC50 [2]: > 10 µM; GI50 [7]: 35.6 µM
NC(=O)CN[C@@H]1C[C@H]1c1ccc(OCc2ccccc2)cc1 [Compound 2] | < 0.2 µM |  |  |  | > 2 µM |  | % platelets vs. Vehicle (platelets; [13]): 35%; % platelets vs. Vehicle (platelets; [14]): 27%; % platelets vs. Vehicle (platelets; 60 mg/kg intraperitoneal once daily for 5 days): 16%
N[C@H]1C[C@@H]1c1ccc(-c2cccc(NS(=O)(=O)c3ccccc3)c2)cc1 [Compound 10] |  | 13.2 µM | 17.4 µM | 14.8 µM |  |  | 
N[C@H]1CCN(CCN[C@H]2C[C@@H]2c2ccc(-c3cccc(C(F)(F)F)c3)cc2)C1 [Compound 5] |  |  |  |  |  | 87% | % platelets vs. Vehicle (platelets; [15]): 63%
N[C@H]1C[C@@H]1c1ccc(-c2cccc(C(F)(F)F)c2)nc1 [Compound 4] |  |  |  |  |  | 19% | % platelets vs. Vehicle (platelets; [11]): 87%; % platelets vs. Vehicle (platelets; 9 mg/kg intraperitoneal once daily for 5 days): 30%; % platelets vs. Vehicle (platelets; 18 mg/kg intraperitoneal once daily for 5 days): 19%; % platelets vs. Vehicle (platelets; [15]): 7%; % platelets vs. Vehicle (platelets; 36 mg/kg intraperitoneal once daily for 5 days): 11%
